Measurements from patent EP4755888A1 (ILAb Co., Ltd., priority 2023, dated 2025).

Legend:
PD-1/PD-L1 = PD-1/PD-L1 (Homo sapiens, UniProt Q9NZQ7); assay: TR-FRET PD-1/PD-L1 binding inhibition at the molecular level (free proteins); settings: Tag1-PD-L1 and Tag2-PD-1 proteins, twelve concentrations from 200 nM, 2 hours at room temperature, read-out: FRET assay (IC50)
In short: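 HTRF read-out at 665/620 nm after 2 h at room temperature. Detection used anti-Tag1 Eu cryptate plus anti-Tag2 XL665 antibodies. Tagged PD-L1 and PD-1 proteins were pre-mixed with compound across twelve […] 1:2 dilutions starting at 200 nM.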

[1] = biological target: T1, PD-L1 expressed on the cell surface (MC38 hPD-L1) (Homo sapiens, UniProt Q9NZQ7); assay: Internalization of cell surface PD-L1, flow cytometry with fluorescent staining; assay type: cell-based; settings: MC38 hPD-L1 cells, 1 µM, 4 hours; untreated 90% to 99%
T1 construct: expressed in transfected cells; host or cells: MC38 mouse colon cancer cell line expressing human PD-L1
T1 sequence (Q9NZQ7 19-290): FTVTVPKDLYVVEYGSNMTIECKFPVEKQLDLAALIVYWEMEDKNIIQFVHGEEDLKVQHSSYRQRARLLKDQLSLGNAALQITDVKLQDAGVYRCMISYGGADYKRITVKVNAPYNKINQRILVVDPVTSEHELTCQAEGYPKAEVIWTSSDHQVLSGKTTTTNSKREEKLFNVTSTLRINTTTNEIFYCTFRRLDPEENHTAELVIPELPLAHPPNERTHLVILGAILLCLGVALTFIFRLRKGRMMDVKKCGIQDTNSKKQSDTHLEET
Protocol: In order to evaluate the internalization of cell surface PD-L1 induced by the compounds of the present invention synthesized according to the above Preparation Examples, a flow cytometry experiment using fluorescent staining was conducted as described below.
Specifically, a mouse colon cancer cell line expressing human PD-L1 (MC38 hPD-L1) was seeded into a 24-well plate at a density of 5 x 10^5 cells per well, followed by treatment with Compounds 206 to 227 at a concentration of 1 µM and incubation for 4 hours. After 4 hours, the compound-treated MC38 hPD-L1 cells were collected and stained with PE anti-hPD-L1 fluorecence at room temperature for 30 minutes. The rate of PD-L1 expression on the cell surface was then quantified using flow cytometry.

PD-1/PD-L1, sequence (Q9NZQ7 19-238 limits assumed): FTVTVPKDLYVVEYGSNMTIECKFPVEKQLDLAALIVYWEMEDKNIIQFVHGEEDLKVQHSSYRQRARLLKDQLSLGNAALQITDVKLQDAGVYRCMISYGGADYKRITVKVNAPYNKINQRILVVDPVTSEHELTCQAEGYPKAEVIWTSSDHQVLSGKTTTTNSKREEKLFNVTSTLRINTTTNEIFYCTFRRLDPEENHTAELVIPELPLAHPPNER

Row | IC50 (PD-1/PD-L1) | Cell surface PD-L1 expression level (%) [1] | Structure (SMILES)
1 | < 10 nM | 41.3% | O=C(O)CN[C@@H]1CCCn2nc(C(=O)Nc3cccc(-c4cccc(NC(=O)c5ccc(CNCCO)cn5)c4Cl)c3Cl)cc21 [Compound 221, (R)-2-((2-((2,2'-dichloro-3'-(5-(((2-hydroxyethyl)amino)methyl)picolinamido)-[1,1'-biphenyl]-3-yl)carbamoyl)-4,5,6,7-tetrahydropyrazolo[1,5-a]pyridin-4-yl)amino)acetic acid]
2 | < 10 nM | 36.5% | O=C(O)CN[C@@H]1CCCn2nc(C(=O)Nc3cccc(-c4cccc(Nc5nccc6cc(CN7CC[C@@H](O)C7)cnc56)c4Cl)c3Cl)cc21 [Compound 219, 2-(((R)-2-((2,2'-dichloro-3'-((3-(((R)-3-hydroxypyrrolidin-1-yl)methyl)-1,7-naphthyridin-8-yl)amino)-[1,1'-biphenyl]-3-yl)carbamoyl)-4,5,6,7-tetrahydropyrazolo[1,5-a]pyridin-4-yl)amino)acetic acid]
3 | < 10 nM | 70.8% | O=C1CC[C@@H](CN[C@H]2CCCn3nc(C(=O)Nc4cccc(-c5cccc(NC(=O)c6ccc(CNCCO)cn6)c5Cl)c4Cl)cc32)N1 [Compound 224, (S)-N-(2,2'-dichloro-3'-(5-(((2-hydroxyethyl)amino)methyl)picolinamido)-[1,1'-biphenyl]-3-yl)-4-((((S)-5-oxopyrrolidin-2-yl)methyl)amino)-4,5,6,7-tetrahydropyrazolo[1,5-a]pyridine-2-carboxamide]
4 | < 10 nM |  | O=C(O)CN[C@H]1CCCn2nc(C(=O)Nc3cccc(-c4cccc(NC(=O)c5cc6n(n5)CCC[C@@H]6NCCO)c4Cl)c3Cl)cc21 [Compound 315, 2-(((S)-2-((2,2'-dichloro-3'-((S)-4-((2-hydroxyethyl)amino)-4,5,6,7-tetrahydropyrazolo[1,5-a]pyridine-2-carboxamido)-[1,1'-biphenyl]-3-yl)carbamoyl)-4,5,6,7-tetrahydropyrazolo[1,5-a]pyridin-4-yl)amino)acetic acid]
5 | < 10 nM |  | O=C(Nc1cccc(-c2cccc(NC(=O)c3ncc(CNCCO)cc3F)c2Cl)c1Cl)c1cc2n(n1)CCCC2N1CC[C@@H](C(=O)O)C1 (stereo partly drawn) [Compound 201, (3R)-1-(2-((2,2'-dichloro-3'-(3-fluoro-5-(((2-hydroxyethyl)amino)methyl)picolinamido)-[1,1'-biphenyl]-3-yl)carbamoyl)-4,5,6,7-tetrahydropyrazolo[1,5-a]pyridin-4-yl)pyrrolidine-3-carboxylic acid]
6 | 10 to 100 nM |  | O=C(Nc1cccc(-c2cccc(Nc3nc(C(F)(F)F)nc4cccnc34)c2Cl)c1Cl)c1cc2n(n1)CCC[C@H]2N1CC[C@@H](O)C1 [Compound 334, (R)-N-(2,2'-dichloro-3'-((2-(trifluoromethyl)pyrido[3,2-d]pyrimidin-4-yl)amino)-[1,1'-biphenyl]-3-yl)-4-((R)-3-hydroxypyrrolidin-1-yl)-4,5,6,7-tetrahydropyrazolo[1,5-a]pyridine-2-carboxamide]
7 | < 10 nM |  | Cc1c(Nc2nccc3cc(CN4CC[C@@H](O)C4)cnc23)cccc1-c1cccc(-c2cc3n(n2)CCCC3N2CC[C@@H](O)C2)c1C (stereo partly drawn) [Compound 177, (3R)-1-((8-((3'-(4-((R)-3-hydroxypyrrolidin-1-yl)-4,5,6,7-tetrahydropyrazolo[1,5-a]pyridin-2-yl)-2,2'-dimethyl-[1,1'-biphenyl]-3-yl)amino)-1,7-naphthyridin-3-yl)methyl)pyrrolidin-3-ol]
8 | 10 to 100 nM |  | COc1nc(-c2cccc(-c3cccc(-c4cc5n(n4)CCCC5NCCO)c3C)c2C)cnc1CNC[C@@H]1CCC(=O)N1 (stereo partly drawn) [Compound 162, (5S)-5-((((5-(3'-(4-((2-hydroxyethyl)amino)-4,5,6,7-tetrahydropyrazolo[1,5-a]pyridin-2-yl)-2,2'-dimethyl-[1,1'-biphenyl]-3-yl)-3-methoxypyrazin-2-yl)methyl)amino)methyl)pyrrolidin-2-one]
9 | 10 to 100 nM |  | O=C(Nc1cccc(-c2cccc(Nc3nc(C(F)(F)F)nc4cc(CN5CC[C@@H](O)C5)cnc34)c2Cl)c1Cl)c1cc2n(n1)CCC[C@@H]2N1CCC(C(=O)O)CC1 [Compound 336, 1-((S)-2-((2,2'-dichloro-3'-((7-(((R)-3-hydroxypyrrolidin-1-yl)methyl)-2-(trifluoromethyl)pyrido[3,2-d]pyrimidin-4-yl)amino)-[1,1'-biphenyl]-3-yl)carbamoyl)-4,5,6,7-tetrahydropyrazolo[1,5-a]pyridin-4-yl)piperidine-4-carboxylic acid]
10 | 10 to 100 nM |  | Cc1c(NC(=O)c2cc3n(n2)CCC[C@@H]3N2CCC(C(=O)O)CC2)cccc1-c1cccc(Nc2nc(C(F)(F)F)nc3cc(CN4CC[C@@H](O)C4)cnc23)c1C [Compound 342, 1-((S)-2-((3'-((7-(((R)-3-hydroxypyrrolidin-1-yl)methyl)-2-(trifluoromethyl)pyrido[3,2-d]pyrimidin-4-yl)amino)-2,2'-dimethyl-[1,1'-biphenyl]-3-yl)carbamoyl)-4,5,6,7-tetrahydropyrazolo[1,5-a]pyridin-4-yl)piperidine-4-carboxylic acid]

The next lines start with the compound.

Row | Structure (SMILES) | IC50 (PD-1/PD-L1) | Cell surface PD-L1 expression level (%) [1]
11 | Cc1c(NC(=O)c2cc3n(n2)CCCC3NCC(=O)O)cccc1-c1cccc(NC(=O)c2nc3c(s2)CN(C)CC3)c1C (stereo not shown) [Compound 149, 2-((2-((2,2'-dimethyl-3'-(5-methyl-4,5,6,7-tetrahydrothiazolo[5,4-c]pyridine-2-carboxamido)-[1,1'-biphenyl]-3-yl)carbamoyl)-4,5,6,7-tetrahydropyrazolo[1,5-a]pyridin-4-yl)amino)acetic acid] | < 10 nM | 
12 | Cn1c(C(=O)Nc2cccc(-c3cccc(NC(=O)c4cc5n(n4)CCCC5N4CCC(O)CC4)c3Cl)c2Cl)nc2c1CCN(CCC13CCC(C(=O)O)(CC1)C3)C2 (stereo not shown) [Compound 58, 4-(2-(2-((2,2'-dichloro-3'-(4-(4-hydroxypiperidin-1-yl)-4,5,6,7-tetrahydropyrazolo[1,5-a]pyridine-2-carboxamido)-[1,1'-biphenyl]-3-yl)carbamoyl)-1-methyl-6,7-dihydro-1H-imidazo[4,5-c]pyridin-5(4H)-yl)ethyl)bicyclo[2.2.1]heptane-1-carboxylic acid] | 10 to 100 nM | 
13 | Cc1c(NC(=O)c2ccc(CNCCO)cn2)cccc1-c1cccc(NC(=O)c2cc3n(n2)CCCC3NCC2CCC(=O)N2)c1C (stereo not shown) [Compound 75, N-(3'-(5-(((2-hydroxyethyl)amino)methyl)picolinamido)-2,2'-dimethyl-[1,1'-biphenyl]-3-yl)-4-(((5-oxopyrrolidin-2-yl)methyl)amino)-4,5,6,7-tetrahydropyrazolo[1,5-a]pyridine-2-carboxamide] | < 10 nM | 
14 | O=C(Nc1cccc(-c2cccc(NC(=O)c3cc4n(n3)CCCC4N3CC[C@@H](O)C3)c2Cl)c1Cl)c1ccc(CNCCO)cn1 (stereo partly drawn) [Compound 85, N-(2,2'-dichloro-3'-(5-(((2-hydroxyethyl)amino)methyl)picolinamido)-[1,1'-biphenyl]-3-yl)-4-((R)-3-hydroxypyrrolidin-1-yl)-4,5,6,7-tetrahydropyrazolo[1,5-a]pyridine-2-carboxamide] | < 10 nM | 
15 | O=C(Nc1cccc(-c2cccc(NC(=O)c3cc4n(n3)CCCC4O)c2Cl)c1Cl)c1ccc(CNCCO)cn1 (stereo not shown) [Compound 81, N-(2,2'-dichloro-3'-(5-(((2-hydroxyethyl)amino)methyl)picolinamido)-[1,1'-biphenyl]-3-yl)-4-hydroxy-4,5,6,7-tetrahydropyrazolo[1,5-a]pyridine-2-carboxamide] | < 10 nM | 
16 | O=C1CC[C@@H](CNC2CCCn3nc(C(=O)Nc4cccc(-c5cccc(Nc6nccc7cc(CN8CC[C@@H](O)C8)cnc67)c5Cl)c4Cl)cc32)N1 (stereo partly drawn) [Compound 21, N-(2,2'-dichloro-3'-((3-(((R)-3-hydroxypyrrolidin-1-yl)methyl)-1,7-naphthyridin-8-yl)amino)-[1,1'-biphenyl]-3-yl)-4-((((S)-5-oxopyrrolidin-2-yl)methyl)amino)-4,5,6,7-tetrahydropyrazolo[1,5-a]pyridine-2-carboxamide] | 10 to 100 nM | 
17 | COc1cc(-c2cccc(-c3cccc(NC(=O)c4cc5n(n4)CCCC5N4CC[C@@H](O)C4)c3Cl)c2Cl)cc(F)c1CNC(C)(C)C(=O)O (stereo partly drawn) [Compound 128, 2-(((2',2"-dichloro-3-fluoro-3"-(4-((R)-3-hydroxypyrrolidin-1-yl)-4,5,6,7-tetrahydropyrazolo[1,5-a]pyridine-2-carboxamido)-5-methoxy-[1,1':3',1"-terphenyl]-4-yl)methyl)amino)-2-methylpropanoic acid] | < 10 nM | 
18 | CC(=O)NCCNC1CCCn2nc(C(=O)Nc3cccc(-c4cccc(Nc5nccc6cc(CN7CC[C@@H](O)C7)cnc56)c4C)c3Cl)cc21 (stereo partly drawn) [Compound 30, 4-((2-acetamidoethyl)amino)-N-(2-chloro-3'-((3-(((R)-3-hydroxypyrrolidin-1-yl)methyl)-1,7-naphthyridin-8-yl)amino)-2'-methyl-[1,1'-biphenyl]-3-yl)-4,5,6,7-tetrahydropyrazolo[1,5-a]pyridine-2-carboxamide] | < 10 nM | 
19 | COc1cc(-c2cccc(-c3cccc(NC(=O)c4cc5n(n4)CCCC5O)c3Cl)c2Cl)cc(F)c1CN1CC[C@@H](O)C1 (stereo partly drawn) [Compound 117, N-(2,2'-dichloro-3"-fluoro-4"-(((R)-3-hydroxypyrrolidin-1-yl)methyl)-5"-methoxy-[1,1':3',1"-terphenyl]-3-yl)-4-hydroxy-4,5,6,7-tetrahydropyrazolo[1,5-a]pyridine-2-carboxamide] | 10 to 100 nM | 
